Patent publication EP4032896A1, “THIAZOLOPYRIMIDONES AS INHIBITORS OF DDR1/2 AND THERAPEUTIC USES THEREOF” (Fundación del Sector Público Estatal Centro Nacional de …, priority 2021, dated 2022)

Experiments:
DDR1 [1] = target: T1, DDR1 (Homo sapiens, UniProt Q08345); test: LanthaScreen Eu-Kinase Binding Assay (TR-FRET tracer displacement), DDR1; details: catalytic domain GST Tag DDR1; Kinase Tracer 178
T1 construct: The enzymes were purchased as a catalytic domain GST Tag DDR1(#PR6913A); purchased ThermoFisher PR6913A
T1 sequence (Q08345 610-905 limits assumed): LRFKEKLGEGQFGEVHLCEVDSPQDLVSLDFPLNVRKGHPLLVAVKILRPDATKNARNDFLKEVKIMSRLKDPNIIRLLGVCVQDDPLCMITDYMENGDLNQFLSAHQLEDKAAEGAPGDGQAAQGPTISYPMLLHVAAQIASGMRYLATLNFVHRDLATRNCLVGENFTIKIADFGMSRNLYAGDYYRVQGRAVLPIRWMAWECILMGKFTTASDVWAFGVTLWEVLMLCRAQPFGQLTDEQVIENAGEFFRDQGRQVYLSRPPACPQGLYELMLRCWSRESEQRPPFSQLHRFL
Source text: (§1) DDR1/2 binding assay: The binding assay relies on the LanthaScreen ™ Eu-Kinase Binding Assay (ThermoFisher Scientfic). This is a kinase assay platform based on measuring the binding and displacement of an Alexa Fluor® conjugate of an ATP-competitive kinase inhibitor or tracer at a kinase active site (Kinase Tracer 178. #PV5593). Binding of the tracer to the kinase is detected by addition of a europium (Eu)-labeled anti-GST antibody (#PV 5594) which specifically labels the kinase of interest. This binding results in a high degree of fluorescence resonance energy transfer (FRET), whereas displacement of the tracer with a kinase inhibitor results in a loss of FRET. The enzymes were purchased as a catalytic domain GST Tag DDR1(#PR6913A) and DDR2 (#PR7167A) from ThermoFisher. Assay conditions were as indicated by the kit manufacturers. Assays were performed in 384-well plates. The final read out was generated using an EnVision plate reader (Perkin-Elmer). The emission ratio was calculated by dividing the acceptor/tracer emission (665 nm) by the antibody/donor emission (615 nm). Values were plotted against the inhibitor concentration and fit to a sigmoid dose-response curve using Activity base by IDBS software.

DDR1 [2] = target: T2, DDR1 (Mus musculus, UniProt Q03146); test: Cellular assay: inhibition of Collagen I-induced DDR1 autophosphorylation in HEK293T cells transiently transfected with DDR1 plasmid (Western blot); assay type: cell-based, human; details: pcDNA3.1 DDR1 WT mouse plasmid, compound 1 h, then 10 µg/mL Collagen I 1 h, P-DDR1 (Y513), read-out: pDDR1 EC50
T2 construct: expressed in transfected cells; host or cells: HEK293T
T2 sequence (Q03146 20-911): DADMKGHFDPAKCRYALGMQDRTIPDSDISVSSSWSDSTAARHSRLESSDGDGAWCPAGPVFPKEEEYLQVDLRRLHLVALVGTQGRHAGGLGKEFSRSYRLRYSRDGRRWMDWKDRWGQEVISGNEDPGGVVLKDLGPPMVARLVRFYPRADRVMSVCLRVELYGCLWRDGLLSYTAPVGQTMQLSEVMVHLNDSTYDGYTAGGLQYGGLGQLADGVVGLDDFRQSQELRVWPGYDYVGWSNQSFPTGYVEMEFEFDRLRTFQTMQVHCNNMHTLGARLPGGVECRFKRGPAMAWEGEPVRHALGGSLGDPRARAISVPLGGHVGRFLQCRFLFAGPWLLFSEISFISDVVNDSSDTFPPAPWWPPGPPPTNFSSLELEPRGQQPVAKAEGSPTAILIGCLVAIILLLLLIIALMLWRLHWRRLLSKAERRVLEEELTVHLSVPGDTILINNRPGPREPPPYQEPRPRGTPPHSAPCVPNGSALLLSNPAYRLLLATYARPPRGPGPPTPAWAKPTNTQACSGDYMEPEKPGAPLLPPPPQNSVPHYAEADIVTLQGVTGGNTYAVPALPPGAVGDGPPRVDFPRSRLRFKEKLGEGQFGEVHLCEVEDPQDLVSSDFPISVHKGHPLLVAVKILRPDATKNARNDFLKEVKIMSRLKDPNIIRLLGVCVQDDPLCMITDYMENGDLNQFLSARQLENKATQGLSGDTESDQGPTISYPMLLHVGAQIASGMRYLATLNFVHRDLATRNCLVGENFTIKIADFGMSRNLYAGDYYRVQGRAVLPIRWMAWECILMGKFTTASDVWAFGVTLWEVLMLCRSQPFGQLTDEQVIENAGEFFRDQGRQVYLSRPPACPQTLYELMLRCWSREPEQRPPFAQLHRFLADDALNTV
Description: DDR1/2 cellular assay: Transient transfection of HEK293T cells with DDR1 plasmid is used to study the inhibition of the autophosphorylation of DDR1 induced by Collagen I in cells. HEK293T are seeded, 6x10^5 cells per well in 6-well plates and incubated for 6 h at 37 °C, 5% CO2. Then, cells are transfected using Effectene reactive (Quiagen) with pcDNA3.1 DDR1 WT mouse plasmid. Cells are incubated with transfection complexes under normal growth conditions for 24 h. After that, medium is replaced with fresh medium and cells are incubated for an additional 18 h. Eight serial 1:3 compound dilutions are made in DMSO. The compounds are added to each well of 6 well cell plates and are incubated at 37 °C under CO2 atmosphere 1 h. DDR1's autophosphorylation is stimulated by 1h treatment with 10 µg/mL Collagen I. Then, cells are washed in PBS, lyse adding 100 µl of complete RIPA protein lysis buffer (RIPA Buffer, 1 mM DTT, 5 mM Bezamidine, 10 µg/mL Aprotinin, 10 µg/mL Leupeptin, 710 ng/mL Pepstatin A, 100 µg/mL Trypsin Inhibitor, 40 µg/mL Bestatin, completed with PhosSTOP EASYpack and complete Mini, EDTA-free) and incubated 20 minutes at 4 °C and then centrifugated. Lysates are kept at -80 °C. The protein content of the lysates is determined by DC protein assay (Biorad, Ref. 5000116). The proteins are resolved by SDS-PAGE and transferred to nitrocellulose membrane (GE Healthcare #10600003). The membranes are incubated overnight at 4 °C with antibodies specific for DDR1 (D1G6) (Cell signaling #5583), P-DDR1 (Y513) (E1N8F) (Cell Signaling # 14531) they are washed and then incubated with Alexa Fluor 680 goat anti-rabbit IgG secondary antibodies (Invitrogen, A21076). The bands are visualized and quantified using an Odyssey infrared imaging system (Li-Cor Biosciences). The percentage of DDR1 phosphorylation is finally plotted against concentration for each compound and EC50s for intracellular DDR1 inhibition are calculated using ActivityBase from IDBS.

DDR2 = target: T3, DDR2 (Homo sapiens, UniProt Q16832); test: LanthaScreen Eu-Kinase Binding Assay (TR-FRET tracer displacement), DDR2; details: catalytic domain GST Tag DDR2; Kinase Tracer 178
T3 construct: The enzymes were purchased as a catalytic domain GST Tag DDR1(#PR6913A) and DDR2 (#PR7167A); purchased ThermoFisher PR7167A
T3 sequence (Q16832 563-849 limits assumed): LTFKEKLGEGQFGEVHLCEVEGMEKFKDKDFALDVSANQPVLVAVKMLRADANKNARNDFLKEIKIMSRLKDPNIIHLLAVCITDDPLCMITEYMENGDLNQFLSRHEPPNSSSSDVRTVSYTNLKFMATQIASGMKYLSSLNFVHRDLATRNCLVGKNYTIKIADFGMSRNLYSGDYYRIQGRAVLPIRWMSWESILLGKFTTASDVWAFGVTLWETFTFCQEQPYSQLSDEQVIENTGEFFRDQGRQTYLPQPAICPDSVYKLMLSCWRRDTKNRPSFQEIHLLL
Source text: as §1

| SMILES | IC50 (DDR1 [1]) [nM] | EC50 (DDR1 [2]) [nM] | IC50 (DDR2) [nM] |
| --- | --- | --- | --- |
| CC(C)c1c(-c2ccnc(Nc3cccc(N4CCN(CCO)CC4)c3)n2)sc2nccc(=O)n12 [Compound 64, 2-(2-{3-[4-(2-Hydroxy-ethyl)-piperazin-1-yl]-phenylamino}-pyrimidin-4-yl)-3-isopropyl-thiazolo[3,2-a]pyrimidin-5-one] | 15.3 | 58.7 | 90.6 |
| O=c1ccnc2sc(-c3ccnc(Nc4cccc(N5CCN(CCO)CC5)c4)n3)c(-c3cccc(Cl)c3Cl)n12 [Compound 60, 3-(2,3-Dichloro-phenyl)-2-(2-{3-[4-(2-hydroxy-ethyl)-piperazin-1-yl]-phenylamino}-pyrimidin-4-yl)-thiazolo[3,2-a]pyrimidin-5-one] | 5.43 | 31.9 | 18.3 |
| COc1ccccc1-c1c(-c2ccnc(Nc3cccc(S(N)(=O)=O)c3)n2)sc2nccc(=O)n12 [Compound 46, 3-{4-[3-(2-Methoxy-phenyl)-5-oxo-5H-thiazolo[3,2-a]pyrimidin-2-yl]-pyrimidin-2-ylamino}-benzenesulfonamide] | 5.3 | 30.6 | 20.1 |
| COc1ccc(-c2c(-c3ccnc(Nc4cccc(N5CCN(CCO)CC5)c4)n3)sc3nccc(=O)n23)cc1 [Compound 53, 2-(2-{3-[4-(2-Hydroxy-ethyl)-piperazin-1-yl]-phenylamino}-pyrimidin-4-yl)-3-(4-methoxy-phenyl)-thiazolo[3,2-a]pyrimidin-5-one] | 5.46 | 19.3 | 16.8 |
| CCc1cc(=O)n2c(-c3ccccc3)c(-c3ccnc(Nc4cccc(N5CCN(CCO)CC5)c4)n3)sc2n1 [Compound 74, 7-Ethyl-2-(2-{3-[4-(2-hydroxy-ethyl)-piperazin-1-yl]-phenylamino}-pyrimidin-4-yl)-3-phenyl-thiazolo[3,2-a]pyrimidin-5-one] | 12.9 | 39.5 | 11.6 |
| COc1cccc(-c2c(-c3ccnc(Nc4cccc(N5CCN(CCO)CC5)c4)n3)sc3nccc(=O)n23)c1 [Compound 50, 2-(2-{3-[4-(2-Hydroxy-ethyl)-piperazin-1-yl]-phenylamino}-pyrimidin-4-yl)-3-(3-methoxy-phenyl)-thiazolo[3,2-a]pyrimidin-5-one] | 21.1 | 33.4 | 79 |
| CCc1c(C)nc2sc(-c3ccnc(Nc4cccc(N5CCN(CCO)CC5)c4)n3)c(-c3ccccc3)n2c1=O [Compound 77, 6-Ethyl-2-(2-{3-[4-(2-hydroxy-ethyl)-piperazin-1-yl]-phenylamino}-pyrimidin-4-yl)-7-methyl-3-phenyl-thiazolo[3,2-a]pyrimidin-5-one] | 25.5 | 46.8 | 69.4 |
| O=c1ccnc2sc(-c3ccnc(Nc4cccc(N5CCN(CCO)CC5)c4)n3)c(-c3ccc(F)c(C(F)(F)F)c3)n12 [Compound 63, 3-(4-Fluoro-3-trifluoromethyl-phenyl)-2-(2-{3-[4-(2-hydroxy-ethyl)-piperazin-1-yl]-phenylamino}-pyrimidin-4-yl)-thiazolo[3,2-a]pyrimidin-5-one] | 119 | 142 | 325 |
| CN1CCN(c2ccc(Nc3nccc(-c4sc5nccc(=O)n5c4-c4ccc(Cl)cc4)n3)cc2)CC1 [Compound 45, 3-(4-Chloro-phenyl)-2-{2-[4-(4-methyl-piperazin-1-yl)-phenylamino]-pyrimidin-4-yl}-thiazolo[3,2-a]pyrimidin-5-one] | 4.23 | 7.63 | 12.6 |
| O=c1ccnc2sc(-c3ccnc(Nc4cccc(N5CCN(CCO)CC5)c4)n3)c(C3CC3)n12 [Compound 65, 3-Cyclopropyl-2-(2-{3-[4-(2-hydroxy-ethyl)-piperazin-1-yl]-phenylamino}-pyrimidin-4-yl)-thiazolo[3,2-a]pyrimidin-5-one] | 118 | 163 | 466 |
| NS(=O)(=O)c1cccc(Nc2nccc(-c3sc4nccc(=O)n4c3-c3cccc(Cl)c3)n2)c1 [Compound 40, 3-{4-[3-(3-Chloro-phenyl)-5-oxo-5H-thiazolo[3,2-a]pyrimidin-2-yl]-pyrimidin-2-ylamino}-benzenesulfonamide] | 16.4 | 113 | 61.6 |
| O=c1ccnc2sc(-c3ccnc(Nc4cccc(N5CCN(CCO)CC5)c4)n3)c(-c3ccc(F)cc3)n12 [Compound 58, 3-(4-Fluoro-phenyl)-2-(2-{3-[4-(2-hydroxy-ethyl)-piperazin-1-yl]-phenylamino}-pyrimidin-4-yl)-thiazolo[3,2-a]pyrimidin-5-one] | 6.4 | 28 | 30.5 |
